Measured values published in US10030027B2, “Soluble guanylate cyclase stimulators” (MERCK SHARP & DOHME CORP., priority 2015, dated 2018).

Tests used:
sGC α1/β1 heterodimer = sGC α1/β1 heterodimer (Homo sapiens (Human), UniProt Q02108+Q02153); assay: Cell-based sGC functional assay (cyclic GMP assay for sGC activator: CASA assay); set-up: % Activation: concentration or dose not given beside the values; settings: CHO-K1/sGC cells; for % Activation: activity expressed as percentage of compound A (standard); for EC50: inflection point, 4P fit, read-out: IP; for Emax: CHO-K1, activity expressed as percentage of compound A (standard), read-out: % Activation
Method in brief: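 CHO-K1 cells stably expressing human sGC α1/β1 were pre-incubated 30 min at 25° C with or without 1 μM DETA-NO, then exposed to compound for 1 hr at 37° C with 0.5 mM IBMX and 2.5% DMSO final. Intracellular cGMP was measured by HTRF, expressed as % of reference sGC-HDA maximum; inflection point and maximum fold induction came from 4-parameter fits.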

[1] = target: human recombinant sGC enzyme (Homo sapiens (Human), UniProt Q02108+Q02153); assay: Size Exclusion Chromatography (SEC) competition binding assay using [3H] Ex-77B as the radioligand; settings: [3H] Ex-77B radioligand, 24 hours at 37° C.
Method in brief: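 Recombinant human sGC binding measured by competition against tritiated Ex-77B radioligand, with non-specific binding defined by 1 μM unlabeled Ex-77B.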

[2] = tested on: Spontaneously hypertensive rats (SHR); assay: Acute efficacy in spontaneously hypertensive rats (SHR); format: in vivo, rat
Excerpt: Acute Efficacy in Spontaneously Hypertensive Rats (SHR)
Spontaneously hypertensive rats (SHR, male, Charles River) were implanted with DSI TA11PA-C40 telemetry device (Data Sciences, Inc., St. Paul, Minn.) under isoflurane or ketamine/metomidine anesthesia. The telemetry unit catheter was inserted into the descending aorta via the femoral artery and the telemetry device was implanted subcutaneously in the left flank area. Animals were allowed to recover from surgery for 14 days before the start of any studies. Blood pressure, heart rate, and activity signals from conscious, freely moving rats were recorded continuously for 30 seconds every 10 minutes. On the day prior to administration of compound, a single oral dose of vehicle (10% transcutol/20% Cremophor/70% water) was administered to all animals to establish baseline control data. The blood pressure lowering efficacy of compound (PO) or vehicle was evaluated following a single oral gavage. Data were collected as hourly averages, and changes in blood pressure were calculated by subtracting control baseline data on an hourly basis. Animals were maintained on normal diet with a 12 hour light-dark cycle.
Maximum peak decreases of systolic blood pressure (SBP) in SHR at a particular P.O. dose (mpk milligrams per kilogram) for the following Example compounds are provided.

| SMILES | % Activation (sGC α1/β1 heterodimer) [%] | EC50 (sGC α1/β1 heterodimer) [nM] | Ki [1] [nM] | Category: maximum peak decrease of systolic blood pressure (SBP) in SHR ([2]; Dose P.O. 3 mpk) | Category: maximum peak decrease of systolic blood pressure (SBP) in SHR ([2]; Dose P.O. 1 mpk) | Emax (sGC α1/β1 heterodimer) [%] |
| --- | --- | --- | --- | --- | --- | --- |
| CC1CCC(Cn2nc(-c3nc(N)c4c(n3)NC(=O)[C@@]4(C)c3ccc(CCC(=O)O)cc3)c3ccc(Cl)cc32)CC1 (single isomer, unassigned) [Example 5BA] | 76 | 132 | 0.162 | B (decrease in SBP in SHRs 25-40 mmHg) | – | – |
| CC(Cc1ccc(C2(C)C(=O)Nc3nc(-c4nn(CCC(F)(F)C(F)(F)F)c5cc(Cl)ccc45)nc(N)c32)cc1)C(=O)O (single isomer, unassigned) [Example 34AA, 3-(4-{4-amino-2-[6-chloro-1-(3,3,4,4,4-pentafluorobutyl)-1H-indazol-3-yl]-5-methyl-6-oxo-6,7-dihydro-5H-pyrrolo[2,3-d]pyrimidin-5-yl}phenyl)-2-methylpropanoic acid] | 81 | 437 | 0.138 | A (decrease in SBP in SHRs 5-25 mmHg) | – | – |
| CC(Cc1ccc(C2(C)C(=O)Nc3nc(-c4nn(CCC(F)(F)C(F)(F)F)c5cc(Cl)ccc45)nc(N)c32)cc1)C(=O)O (single isomer, unassigned) [Example 34AB, 3-(4-{4-amino-2-[6-chloro-1-(3,3,4,4,4-pentafluorobutyl)-1H-indazol-3-yl]-5-methyl-6-oxo-6,7-dihydro-5H-pyrrolo[2,3-d]pyrimidin-5-yl}phenyl)-2-methylpropanoic acid] | 115 | 771 | 0.231 | – | A (decrease in SBP in SHRs 5-25 mmHg) | – |
| C[C@@]1(c2nc(CCC(=O)O)cs2)C(=O)Nc2nc(-c3nn(CCC(F)(F)C(F)(F)F)c4ncccc34)nc(N)c21 (single isomer, unassigned) [Example 82B] | – | 1370 | 0.223 | A (decrease in SBP in SHRs 5-25 mmHg) | – | 107 |
| CC(C)(Cc1ccc(C2(C)C(=O)Nc3nc(-c4nn(CCC(F)(F)C(F)(F)F)c5ncccc45)nc(N)c32)cc1)C(=O)O (centres unmarked) [Example 9B] | – | 1370 | 0.374 | A (decrease in SBP in SHRs 5-25 mmHg) | – | 118 |
| CCCCn1nc(-c2nc(N)c3c(n2)NC(=O)[C@@]3(C)c2ccc(CCC(=O)O)cc2)c2ccc(Cl)nc21 [Example 13B, (S)-3-(4-{4-amino-2-(1-butyl-6-chloro-1H-pyrazolo[3,4-b]pyridin-3-yl)-5-methyl-6-oxo-6,7-dihydro-5H-pyrrolo[2,3-d]pyrimidin-5-yl}phenyl)propanoic acid] | – | 152 | 0.112 | A (decrease in SBP in SHRs 5-25 mmHg) | – | 86 |
| CCCCn1nc(-c2nc(N)c3c(n2)NC(=O)[C@@]3(C)c2ccc(CCC(=O)O)cc2)c2cccnc21 [Example 14B, (S)-3-(4-{4-amino-2-(1-butyl-1H-pyrazolo[3,4-b]pyridin-3-yl)-5-methyl-6-oxo-6,7-dihydro-5H-pyrrolo[2,3-d]pyrimidin-5-yl}phenyl)propanoic acid] | – | 525 | 0.21 | A (decrease in SBP in SHRs 5-25 mmHg) | – | 90 |
| CC1(c2cccc(CCC(=O)O)c2)C(=O)Nc2nc(-c3nn(Cc4ccccc4F)c4ncccc34)nc(N)c21 (centres unmarked) [Example 22A, 3-(3-{4-amino-2-[1-(2-fluorobenzyl)-1H-pyrazolo[3,4-b]pyridin-3-yl]-5-methyl-6-oxo-6,7-dihydro-5H-pyrrolo[2,3-d]pyrimidin-5-yl}phenyl)propanoic acid] | – | 423 | 0.078 | A (decrease in SBP in SHRs 5-25 mmHg) | – | 91 |
| CC(C)(Cc1cccc(C2(C)C(=O)Nc3nc(-c4nn(CCC(F)(F)C(F)(F)F)c5cc(Cl)ccc45)nc(N)c32)c1)C(=O)O (centres unmarked) [Example 27B, 3-(3-{4-amino-2-[6-chloro-1-(3,3,4,4,4-pentafluorobutyl)-1H-indazol-3-yl]-5-methyl-6-oxo-6,7-dihydro-5H-pyrrolo[2,3-d]pyrimidin-5-yl}phenyl)-2,2-dimethylpropanoic acid] | – | 331 | 0.221 | – | A (decrease in SBP in SHRs 5-25 mmHg) | 120 |
| CC(C)(Cc1ccc(C2(C)C(=O)Nc3nc(-c4nn(CCC(F)(F)C(F)(F)F)c5cc(Cl)ccc45)nc(N)c32)cc1)C(=O)O (centres unmarked) [Example 33B, 3-(4-{4-amino-2-[6-chloro-1-(3,3,4,4,4-pentafluorobutyl)-1H-indazol-3-yl]-5-methyl-6-oxo-6,7-dihydro-5H-pyrrolo[2,3-d]pyrimidin-5-yl}phenyl)-2,2-dimethylpropanoic acid] | – | 804 | 0.594 | B (decrease in SBP in SHRs 25-40 mmHg) | – | 100 |
| CCCCn1nc(-c2nc(N)c3c(n2)NC(=O)[C@@]3(C)c2ccc(CCC(=O)O)cc2)c2ccc(Cl)cc21 [Example 38B, (S)-3-{4-[4-amino-2-(1-butyl-6-chloro-1H-indazol-3-yl)-5-methyl-6-oxo-6,7-dihydro-5H-pyrrolo[2,3-d]pyrimidin-5-yl]phenyl}propanoic acid] | – | 220 | 0.145 | A (decrease in SBP in SHRs 5-25 mmHg) | – | 98 |
| C[C@@]1(c2ccc(CCC(=O)O)cc2)C(=O)Nc2nc(-c3nn(CC4CCCCC4)c4cc(Cl)ccc34)nc(N)c21 [Example 44B, (S)-3-(4-{4-amino-2-[6-chloro-1-(cyclohexylmethyl)-1H-indazol-3-yl]-5-methyl-6-oxo-6,7-dihydro-5H-pyrrolo[2,3-d]pyrimidin-5-yl}phenyl)propanoic acid] | – | 245 | 0.123 | C (decrease in SBP in SHRs>40 mmHg) | – | 127 |
| CCCCCCn1nc(-c2nc(N)c3c(n2)NC(=O)[C@@]3(C)c2ccc(CCC(=O)O)cc2)c2ccc(Cl)cc21 [Example 45B, (S)-3-{4-[4-amino-2-(6-chloro-1-hexyl-1H-indazol-3-yl)-5-methyl-6-oxo-6,7-dihydro-5H-pyrrolo[2,3-d]pyrimidin-5-yl]phenyl}propanoic acid] | – | 210 | 0.182 | B (decrease in SBP in SHRs 25-40 mmHg) | – | 95 |
| C[C@@]1(c2ccc(CCC(=O)O)cc2)C(=O)Nc2nc(-c3nn(CC45CC6CC(CC(C6)C4)C5)c4cc(Cl)ccc34)nc(N)c21 [Example 70B, (S)-3-(4-{2-[1-(adamantan-1-ylmethyl)-6-chloro-1H-indazol-3-yl]-4-amino-5-methyl-6-oxo-6,7-dihydro-5H-pyrrolo[2,3-d]pyrimidin-5-yl}phenyl)propanoic acid] | – | 649 | – | A (decrease in SBP in SHRs 5-25 mmHg) | – | 120 |
| C[C@@]1(c2ccc(CCC(=O)O)cc2)C(=O)Nc2nc(-c3nn(Cc4ccccc4F)c4ccccc34)nc(N)c21 [Example 76B, (S)-3-(4-{4-Amino-2-[1-(2-fluorobenzyl)-1H-indazol-3-yl]-5-methyl-6-oxo-6,7-dihydro-5H-pyrrolo[2,3-d]pyrimidin-5-yl}phenyl)propanoic acid] | – | – | – | B (decrease in SBP in SHRs 25-40 mmHg) | – | – |
| C[C@@]1(c2ccc(CCC(=O)NS(C)(=O)=O)cc2)C(=O)Nc2nc(-c3nn(Cc4ccccc4F)c4cc(Cl)ccc34)nc(N)c21 [Example 259B, (S)-3-(4-{4-Amino-2-[6-chloro-1-(2-fluorobenzyl)-1H-indazol-3-yl]-5-methyl-6-oxo-6,7-dihydro-5H-pyrrolo[2,3-d]pyrimidin-5-yl}phenyl)-N-(methylsulfonyl)propanamide] | – | 560 | 0.111 | – | – | 116 |
| CC1(c2ccc(OCC(=O)O)cc2)C(=O)Nc2nc(-c3nn(Cc4ccccc4F)c4cc(Cl)ccc34)nc(N)c21 (centres unmarked) [Example 260A, (4-{4-Amino-2-[6-chloro-1-(2-fluorobenzyl)-1H-indazol-3-yl]-5-methyl-6-oxo-6,7-dihydro-5H-pyrrolo[2,3-d]pyrimidin-5-yl}phenoxy)acetic acid] | – | 125 | 0.058 | – | – | 136 |
| CC1(N2CCC(CCC(=O)O)CC2)C(=O)Nc2nc(-c3nn(Cc4ccccc4F)c4cc(Cl)ccc34)nc(N)c21 (centres unmarked) [Example 262B, 3-(1-{4-Amino-2-[6-chloro-1-(2-fluorobenzyl)-1H-indazol-3-yl]-5-methyl-6-oxo-6,7-dihydro-5H-pyrrolo[2,3-d]pyrimidin-5-yl}piperidin-4-yl)propanoic acid] | – | 27 | 0.097 | – | – | 82.4 |
